# According to patent publication US11040954B1, “CXCR3 receptor agonists” (RECEPTOS LLC, priority 2016, dated 2021):
# Biological target: T1, CXCR3 (Homo sapiens, UniProt P49682)
# T1 construct: host or cells: CHO-K1 (cAMP Hunter CHOK1 CXCR3 Gi cell line)
# T1 sequence (P49682 1-368): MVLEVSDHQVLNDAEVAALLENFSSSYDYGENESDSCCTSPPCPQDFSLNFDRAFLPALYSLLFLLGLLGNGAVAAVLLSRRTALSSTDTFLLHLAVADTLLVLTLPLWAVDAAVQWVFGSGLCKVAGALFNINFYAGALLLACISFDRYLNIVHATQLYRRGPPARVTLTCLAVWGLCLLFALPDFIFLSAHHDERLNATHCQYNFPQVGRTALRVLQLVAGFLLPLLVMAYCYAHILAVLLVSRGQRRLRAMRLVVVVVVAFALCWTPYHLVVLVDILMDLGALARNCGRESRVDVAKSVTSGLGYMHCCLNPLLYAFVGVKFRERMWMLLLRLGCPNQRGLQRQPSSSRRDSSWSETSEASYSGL
# Assay: CXCR3 cAMP agonist assay (cAMP Hunter CHOK1 CXCR3 Gi cell line, forskolin-stimulated, HitHunter cAMP detection)
# Assay type: cell-based
# Conditions: cAMP Hunter CHOK1 CXCR3 Gi cells, 20 μM forskolin, 30 minutes; read-out: Activity (CXCR3 cAMP agonist assay compound EC50)
# Procedure, shortened: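 CHOK1 cells expressing human CXCR3 with Gi coupling, 50,000/well in suspension in HBSS/10 mM HEPES/0.1% BSA pH 7.4, were co-treated with 20 μM forskolin and compound (12-point, 0-10 μM, 1% DMSO) for 30 min. cAMP was read by enzyme-complementation luminescence; CXCL11 dose response set maximum efficacy.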
row,SMILES,EC50 [nM]
1,"Cc1cc(NC(=O)C2(NC(=O)[C@@H]3Cc4ccccc4CN3C(=O)CCC(=O)c3ccccc3)CCN(CCO)CC2)ccc1Cl [Compound 20-1, (S)—N-(4-((4-chloro-3-methylphenyl)carbamoyl)-1-(2-hydroxyethyl)piperidin-4-yl)-2-(4-oxo-4-phenylbutanoyl)-1,2,3,4-tetrahydroisoquinoline-3-carboxamide]",50 to 250
2,"Cc1cc(NC(=O)C(CCC2(N(C)C)COC2)NC(=O)[C@@H]2Cc3ccccc3CN2C(=O)CCC(=O)c2ccccc2)ccc1Cl (stereo partly drawn) [Compound 21-1, (3S)—N-(1-((4-chloro-3-methylphenyl)amino)-4-(3-(dimethylamino)oxetan-3-yl)-1-oxobutan-2-yl)-2-(4-oxo-4-phenylbutanoyl)-1,2,3,4-tetrahydroisoquinoline-3-carboxamide]",50 to 250
3,"Cc1cc(NC(=O)[C@@H](CC23CC(N)(C2)C3)NC(=O)[C@@H]2Cc3ccccc3CN2C(=O)CCC(=O)c2ccccc2)ccc1Cl [Compound 22-2, (S)—N—((R)-3-(3-aminobicyclo[1.1.1]pentan-1-yl)-1-((4-chloro-3-methylphenyl)amino)-1-oxopropan-2-yl)-2-(4-oxo-4-phenylbutanoyl)-1,2,3,4-tetrahydroisoquinoline-3-carboxamide]",250 to 500
4,O=C(CCC(=O)N1Cc2ccccc2C[C@H]1C(=O)N[C@@H](CCN1CCC(F)(F)CC1)C(=O)Nc1ccc(Cl)c(Cl)c1F)c1ccccc1 [Compound 23-2],50 to 250
5,O=C(CCC(=O)N1Cc2ccccc2C[C@H]1C(=O)N[C@@H](CCN1CCC(F)(F)C1)C(=O)Nc1ccc(Cl)c(Cl)c1F)c1ccccc1 [Compound 23-4],50 to 250
6,O=C(CCC(=O)N1Cc2ccccc2C[C@H]1C(=O)N[C@@H](CCN1CCCC(F)(F)C1)C(=O)Nc1ccc(Cl)c(Cl)c1F)c1ccccc1 [Compound 23-5],250 to 500
7,O=C(CCC(=O)N1Cc2ccccc2C[C@H]1C(=O)N[C@@H](CCN1CC(F)(F)C1)C(=O)Nc1ccc2c(c1)CCC2)c1ccccc1 [Compound 23-6],50 to 250
8,O=C(CCC(=O)N1Cc2ccccc2C[C@H]1C(=O)N[C@@H](CCN1CCC(F)(F)C1)C(=O)Nc1ccc2c(c1)CCC2)c1ccccc1 [Compound 23-7],250 to 500
9,O=C(CCC(=O)N1Cc2ccccc2C[C@H]1C(=O)N[C@@H](CCN1CCCC(F)(F)C1)C(=O)Nc1ccc2c(c1)CCC2)c1ccccc1 [Compound 23-8],250 to 500
10,O=C(CCC(=O)N1Cc2ccccc2C[C@H]1C(=O)N[C@@H](CCN1CCS(=O)(=O)CC1)C(=O)Nc1ccc2c(c1)CCC2)c1ccccc1 [Compound 23-9],50 to 250
11,"COC1CCN(CC[C@H](NC(=O)[C@@H]2Cc3ccccc3CN2C(=O)CCC(=O)c2ccccc2)C(=O)Nc2ccc(Cl)c(C)c2)CC1 [Compound 24-1, (S)—N—((S)-1-((4-chloro-3-methylphenyl)amino)-4-(4-methoxypiperidin-1-yl)-1-oxobutan-2-yl)-2-(4-oxo-4-phenylbutanoyl)-1,2,3,4-tetrahydroisoquinoline-3-carboxamide]",50 to 250
12,CN1CCN(CC[C@H](NC(=O)[C@@H]2Cc3ccccc3CN2C(=O)CCC(=O)c2ccccc2)C(=O)Nc2ccc3c(c2)CCC3)CC1 [Compound 24-2],50 to 250
13,"CC1(C)CCCCN1C(=O)CCC(=O)N1Cc2ccccc2C[C@H]1C(=O)N[C@@H](CCN1CCC(O)CC1)C(=O)Nc1ccc(Cl)c(Cl)c1F [Compound 26-1, (S)—N—((S)-1-((3,4-dichloro-2-fluorophenyl)amino)-4-(4-hydroxypiperidin-1-yl)-1-oxobutan-2-yl)-2-(4-(2,2-dimethylpiperidin-1-yl)-4-oxobutanoyl)-1,2,3,4-tetrahydroisoquinoline-3-carboxamide]",< 50
14,CC1(C)CCCCN1C(=O)CCC(=O)N1Cc2ccccc2C[C@H]1C(=O)N[C@H](CCN1CCC(O)CC1)C(=O)Nc1ccc(Cl)c(Cl)c1F [Compound 26-2],< 50
15,CC1(C)CCCN(C(=O)CCC(=O)N2Cc3ccccc3C[C@H]2C(=O)N[C@@H](CCN2CCC(O)CC2)C(=O)Nc2ccc(Cl)c(Cl)c2F)C1 [Compound 26-3],< 50
16,"Cc1cnc(NC(=O)[C@H](CCN)NC(=O)[C@@H]2Cc3ccccc3CN2C(=O)CCC(=O)c2ccccc2)cc1Cl [Compound 27-1, (S)—N—((S)-4-amino-1-((4-chloro-5-methylpyridin-2-yl)amino)-1-oxobutan-2-yl)-2-(4-oxo-4-phenylbutanoyl)-1,2,3,4-tetrahydroisoquinoline-3-carboxamide]",< 50

row,SMILES,EC50 [nM]
1,NCC[C@H](NC(=O)[C@@H]1Cc2ccccc2CN1C(=O)CCC(=O)c1ccccc1)C(=O)Nc1cc(Cl)c(F)c(Cl)c1 [Compound 27-2],250 to 500
2,N#Cc1ccccc1NC(=O)[C@H](CCN)NC(=O)[C@@H]1Cc2ccccc2CN1C(=O)CCC(=O)c1ccccc1 [Compound 27-4],< 50
3,Cc1c(F)cc(NC(=O)[C@H](CCN)NC(=O)[C@@H]2Cc3ccccc3CN2C(=O)CCC(=O)c2ccccc2)cc1F [Compound 27-5],< 50
4,NCC[C@H](NC(=O)[C@@H]1Cc2ccccc2CN1C(=O)CCC(=O)c1ccccc1)C(=O)Nc1cc(F)c(Cl)c(Cl)c1 [Compound 27-6],50 to 250
5,"O=C(CCC(=O)N1Cc2ccccc2C[C@H]1C(=O)N[C@@H](CCN1CCC(O)CC1)C(=O)Nc1ccc2c(c1)CCC2)c1ccccc1 [Compound 28-1, (S)—N—((S)-1-((2,3-dihydro-1H-inden-5-yl)amino)-4-(4-hydroxypiperidin-1-yl)-1-oxobutan-2-yl)-2-(4-oxo-4-phenylbutanoyl)-1,2,3,4-tetrahydroisoquinoline-3-carboxamide]",< 50
6,Cc1cccc(NC(=O)[C@H](CCN2CCC(O)CC2)NC(=O)[C@@H]2Cc3ccccc3CN2C(=O)CCC(=O)c2ccccc2)c1F [Compound 28-2],< 50
7,Cc1ccc(NC(=O)[C@H](CCN2CCC(O)CC2)NC(=O)[C@@H]2Cc3ccccc3CN2C(=O)CCC(=O)c2ccccc2)c(F)c1 [Compound 28-3],250 to 500
8,"CS(=O)(=O)Oc1ccc2c(c1)CN(C(=O)CCC(=O)c1ccccc1)[C@H](C(=O)N[C@@H](CCN)C(=O)Nc1ccc(Cl)c(Cl)c1F)C2 [Compound 29-1, (S)-3-(((S)-4-amino-1-((3,4-dichloro-2-fluorophenyl)amino)-1-oxobutan-2-yl)carbamoyl)-2-(4-oxo-4-phenylbutanoyl)-1,2,3,4-tetrahydroisoquinolin-7-yl methanesulfonate]",50 to 250
9,"N#Cc1ccc2c(c1)CN(C(=O)CCC(=O)c1ccccc1)[C@H](C(=O)N[C@@H](CCN)C(=O)Nc1ccc(Cl)c(Cl)c1F)C2 [Compound 30-1, (S)—N—((S)-4-amino-1-((3,4-dichloro-2-fluorophenyl)amino)-1-oxobutan-2-yl)-7-cyano-2-(4-oxo-4-phenylbutanoyl)-1,2,3,4-tetrahydroisoquinoline-3-carboxamide]",50 to 250
10,"Cc1cc(NC(=O)[C@H](CCNC(=O)CN)NC(=O)[C@@H]2Cc3ccccc3CN2C(=O)CCC(=O)N2CCCCC2)ccc1Cl [Compound 31-1, (S)—N—((S)-4-(2-aminoacetamido)-1-((4-chloro-3-methylphenyl)amino)-1-oxobutan-2-yl)-2-(4-oxo-4-(piperidin-1-yl)butanoyl)-1,2,3,4-tetrahydroisoquinoline-3-carboxamide]",< 50
11,"CS(=O)(=O)NCC[C@H](NC(=O)[C@@H]1Cc2ccccc2CN1C(=O)CCC(=O)N1CCCCC1)C(=O)Nc1ccc(Cl)c(Cl)c1F [Compound 32-1, (S)—N—((S)-1-((3,4-dichloro-2-fluorophenyl)amino)-4-(methylsulfonamido)-1-oxobutan-2-yl)-2-(4-oxo-4-(piperidin-1-yl)butanoyl)-1,2,3,4-tetrahydroisoquinoline-3-carboxamide]",50 to 250
12,Cc1cc(NC(=O)[C@H](CCNS(C)(=O)=O)NC(=O)[C@@H]2Cc3ccccc3CN2C(=O)CCC(=O)N2CCCCC2)ccc1Cl [Compound 32-2],< 50
13,"CC1(C)CCCCN1C(=O)CCC(=O)N1Cc2ccccc2C[C@H]1C(=O)NC(CC12CC(N)(C1)C2)C(=O)Nc1ccc(Cl)c(Cl)c1F (stereo partly drawn) [Compound 33-1, (3S)—N-(3-(3-aminobicyclo[1.1.1]pentan-1-yl)-1-((3,4-dichloro-2-fluorophenyl)amino)-1-oxopropan-2-yl)-2-(4-(2,2-dimethylpiperidin-1-yl)-4-oxobutanoyl)-1,2,3,4-tetrahydroisoquinoline-3-carboxamide]",< 50
14,"CC1(C)CCCCN1C(=O)CCC(=O)N1Cc2ccc(F)cc2C[C@H]1C(=O)N[C@@H](CCN)C(=O)Nc1ccc(Cl)c(Cl)c1F [Compound 34-1, (S)—N—((S)-4-amino-1-((3,4-dichloro-2-fluorophenyl)amino)-1-oxobutan-2-yl)-2-(4-(2,2-dimethylpiperidin-1-yl)-4-oxobutanoyl)-6-fluoro-1,2,3,4-tetrahydroisoquinoline-3-carboxamide]",< 50
15,"N#Cc1c(NC(=O)[C@H](CCN)NC(=O)[C@@H]2Cc3ccccc3CN2C(=O)CCC(=O)c2ccccc2)ccc2c1CCC2 [Compound 35-1, (S)—N—((S)-4-amino-1-((4-cyano-2,3-dihydro-1H-inden-5-yl)amino)-1-oxobutan-2-yl)-2-(4-oxo-4-phenylbutanoyl)-1,2,3,4-tetrahydroisoquinoline-3-carboxamide]",< 50
16,Cc1cc(C#N)c(NC(=O)[C@H](CCN)NC(=O)[C@@H]2Cc3ccccc3CN2C(=O)CCC(=O)c2ccccc2)cc1Cl [Compound 35-2],< 50
